Source: patent publication US7247634B2, “Rifamycin derivatives effective against drug-resistant microbes” (Cumbre Pharmaceuticals Inc., priority 2004, dated 2007)
≈ marks a conversion by molar mass, not a printed value.

What was measured:
Format in all cases: cell-based
[1] = system: Staphylococcus epidermidis ATCC12228; assay: MIC, microbroth dilution (NCCLS); conditions: rifS strain, Cation-Adjusted Mueller-Hinton Broth, 37° C., read-out: Antimicrobial activity (MIC)
[2] = system: Streptococcus pyogenes ATCC19615; assay: MIC, microbroth dilution (NCCLS); conditions: rifS strain, THY Broth, 37° C., read-out: Antimicrobial activity (MIC)
[3] = system: Streptococcus pneumoniae ATCC6303; assay: MIC, microbroth dilution (NCCLS); conditions: rifS strain, THY Broth with 1 mg/mL catalase, 5% CO2, 37° C., read-out: Antimicrobial activity (MIC)
[4] = system: Enterococcus faecalis ATCC29212; assay: MIC, microbroth dilution (NCCLS); conditions: rifS strain, BHI Broth, 37° C., read-out: Antimicrobial activity (MIC)
[5] = system: Mycobacterium smegmatis ATCC700084; assay: MIC, microbroth dilution (NCCLS); conditions: Mycolicibacterium smegmatis, rifS strain, Middlebrook Broth plus ADC Enrichment, 37° C., read-out: Antimicrobial activity (MIC)
[6] = system: Staphylococcus aureus EN1252a gyrA^S84L grlA^S80F; assay: microbe, parasite or virus in culture; conditions: read-out: Antimicrobial activity (MIC)
Experimental: (§1) Representative compounds were assayed for antimicrobial activity as follows: Minimum Inhibitory Concentrations (“MICs”) were determined by the microbroth dilution method as per NCCLS guidelines (National Committee for Clinical Laboratory Standards. 2000. Methods for dilution antimicrobial susceptibility tests for bacteria that grow aerobically, 5th ed. M7-A5. National Committee for Clinical Laboratory Standards, Wayne, Pa.), except that all growth incubations were conducted at 37° C. Bacterial cultures were tested in the following bacteriological media: S. aureus, S. epidermidis, and E. coli in Cation-Adjusted Mueller-Hinton Broth, S. pneumoniae in THY Broth supplemented with 1 mg/mL catalase under 5% CO2 atmosphere, S. pyogenes in THY Broth, E. faecalis in BHI Broth, H. influenzae in BHI Broth supplemented with 0.75 μL of 1 mg/mL NAD and 150 μL of 1 mg/ml hematin per 5 mL, and M. smegmatis in Middlebrook Broth plus ADC Enrichment.
(§2) S. aureus ATCC 29213 RpoB^H418Y is a rifampin-resistant strain with a mutation in RNA polymerase, the biological target of rifamycin antibiotics. […] S. aureus EN1252a gyrA^S84L grlA^S80F is a quinolone-resistant strain due to double mutations to DNA gyrase and topoisomerase IV, the two biological targets for quinolone antibiotics.

[7] = system: Staphylococcus aureus ATCC29213 rpoB^H418Y; assay: microbe, parasite or virus in culture; conditions: ATCC29213, read-out: Antimicrobial activity (MIC)
Experimental: as §1, §2

[8] = system: Staphylococcus aureus ATCC29213 rpoB^D417Y; assay: microbe, parasite or virus in culture; conditions: ATCC29213, read-out: Antimicrobial activity (MIC)
Experimental: as §1, §2

[9] = system: Escherichia coli ATCC25922; assay: MIC, microbroth dilution (NCCLS); conditions: rifS strain, Cation-Adjusted Mueller-Hinton Broth, 37° C., read-out: Antimicrobial activity (MIC)
[10] = system: Haemophilus influenzae ATCC10211; assay: MIC, microbroth dilution (NCCLS); conditions: rifS strain, BHI Broth with NAD and hematin, 37° C., read-out: Antimicrobial activity (MIC)
[11] = system: Staphylococcus aureus ATCC29213; assay: MIC, microbroth dilution (NCCLS); conditions: rifS strain, Cation-Adjusted Mueller-Hinton Broth, 37° C., read-out: Antimicrobial activity (MIC)

CO[C@H]1/C=C/O[C@@]2(C)Oc3c(C)c(O)c4c(c3C2=O)C(=O)C(N2CCC(NC3CCN(c5c(F)cc6c(=O)c(C(=O)O)cn(C7CC7)c6c5Cl)C3)CC2)=C(NC(=O)/C(C)=C\C=C\[C@H](C)[C@H](O)[C@@H](C)[C@@H](O)[C@@H](C)[C@H](OC(C)=O)[C@@H]1C)C4=O (mixture of isomers) [Example 29, (R/S)-3-{4-[1-(3-Carboxy-8-chloro-1-cyclopropyl-6-fluoro-4-oxo-1,4-dihydroquinolin-7-yl)-pyrrolidin-3-ylamino]-piperidin-1-yl}rifamycin S]
MIC [1]: 0.008 to 0.063 µg/mL (≈ 0.007 to 0.0551 µM)
MIC [2]: 0.008 to 0.063 µg/mL (≈ 0.007 to 0.0551 µM)
MIC [3]: 0.008 to 0.125 µg/mL (≈ 0.007 to 0.109 µM)
MIC [4]: 2 to 32 µg/mL (≈ 1.75 to 28 µM)
MIC [5]: 0.5 to 64 µg/mL
MIC [6]: 0.004 to 0.5 µg/mL (≈ 0.0035 to 0.438 µM)
MIC [7]: 0.06 to 16 µg/mL (≈ 0.0525 to 14 µM)
MIC [8]: 0.06 to 32 µg/mL (≈ 0.0525 to 28 µM)
MIC [9]: 0.125 to 8 µg/mL (≈ 0.109 to 7 µM)
MIC [10]: 0.125 to 2 µg/mL (≈ 0.109 to 1.75 µM)
MIC [11]: 0.004 to 0.5 µg/mL (≈ 0.0035 to 0.438 µM)

COc1c(N2CCC(NC3CCN(C4=C5NC(=O)/C(C)=C\C=C\[C@H](C)[C@H](O)[C@@H](C)[C@@H](O)[C@@H](C)[C@H](OC(C)=O)[C@H](C)[C@@H](OC)/C=C/O[C@@]6(C)Oc7c(C)c(O)c(c(c7C6=O)C4=O)C5=O)CC3)C2)c(F)cc2c(=O)c(C(=O)O)cn(C3CC3)c12 (mixture of isomers) [Example 30, (R/S)-3-{4-[1-(3-Carboxy-1-cyclopropyl-6-fluoro-8-methoxy-4-oxo-1,4-dihydroquinolin-7-yl)-pyrrolidin-3-ylamino]-piperidin-1-yl}rifamycin S]
MIC [1]: 0.008 to 0.063 µg/mL (≈ 0.00703 to 0.0553 µM)
MIC [2]: 0.008 to 0.063 µg/mL (≈ 0.00703 to 0.0553 µM)
MIC [3]: 0.008 to 0.125 µg/mL (≈ 0.00703 to 0.11 µM)
MIC [4]: 2 to 32 µg/mL (≈ 1.76 to 28.1 µM)
MIC [5]: 0.5 to 64 µg/mL
MIC [6]: 0.004 to 0.5 µg/mL (≈ 0.00351 to 0.439 µM)
MIC [7]: 0.06 to 16 µg/mL (≈ 0.0527 to 14.1 µM)
MIC [8]: 0.06 to 32 µg/mL (≈ 0.0527 to 28.1 µM)
MIC [9]: 0.125 to 8 µg/mL (≈ 0.11 to 7.03 µM)
MIC [10]: 0.125 to 2 µg/mL (≈ 0.11 to 1.76 µM)
MIC [11]: 0.004 to 0.5 µg/mL (≈ 0.00351 to 0.439 µM)

COc1c(N2CCCC(NC3CCN(C4=C5NC(=O)/C(C)=C\C=C\[C@H](C)[C@H](O)[C@@H](C)[C@@H](O)[C@@H](C)[C@H](OC(C)=O)[C@H](C)[C@@H](OC)/C=C/O[C@@]6(C)Oc7c(C)c(O)c(c(c7C6=O)C4=O)C5=O)CC3)C2)c(F)cc2c(=O)c(C(=O)O)cn(C3CC3)c12 (mixture of isomers) [Example 32, (R/S)-3-{4-[1-(3-Carboxy-1-cyclopropyl-6-fluoro-8-methoxy-4-oxo-1,4-dihydroquinolin-7-yl)-piperidin-3-ylamino]-piperidin-1-yl}rifamycin S]
MIC [1]: 0.008 to 0.063 µg/mL (≈ 0.00694 to 0.0547 µM)
MIC [2]: 0.008 to 0.063 µg/mL (≈ 0.00694 to 0.0547 µM)
MIC [3]: 0.008 to 0.125 µg/mL (≈ 0.00694 to 0.108 µM)
MIC [4]: 2 to 32 µg/mL (≈ 1.74 to 27.8 µM)
MIC [5]: 0.5 to 64 µg/mL
MIC [6]: 0.004 to 0.5 µg/mL (≈ 0.00347 to 0.434 µM)
MIC [7]: 0.06 to 16 µg/mL (≈ 0.0521 to 13.9 µM)
MIC [8]: 0.06 to 32 µg/mL (≈ 0.0521 to 27.8 µM)
MIC [9]: 0.125 to 8 µg/mL (≈ 0.108 to 6.94 µM)
MIC [10]: 0.125 to 2 µg/mL (≈ 0.108 to 1.74 µM)
MIC [11]: 0.004 to 0.5 µg/mL (≈ 0.00347 to 0.434 µM)

COc1c(N2CCC(N(C)C3CCN(C4=C5NC(=O)/C(C)=C\C=C\[C@H](C)[C@H](O)[C@@H](C)[C@@H](O)[C@@H](C)[C@H](OC(C)=O)[C@H](C)[C@@H](OC)/C=C/O[C@@]6(C)Oc7c(C)c(O)c(c(c7C6=O)C4=O)C5=O)CC3)C2)c(F)cc2c(=O)c(C(=O)O)cn(C3CC3)c12 (mixture of isomers) [Example 34]
MIC [1]: 0.008 to 0.063 µg/mL (≈ 0.00694 to 0.0547 µM)
MIC [2]: 0.008 to 0.063 µg/mL (≈ 0.00694 to 0.0547 µM)
MIC [3]: 0.008 to 0.125 µg/mL (≈ 0.00694 to 0.108 µM)
MIC [4]: 2 to 32 µg/mL (≈ 1.74 to 27.8 µM)
MIC [5]: 0.5 to 64 µg/mL
MIC [6]: 0.004 to 0.5 µg/mL (≈ 0.00347 to 0.434 µM)
MIC [7]: 0.06 to 16 µg/mL (≈ 0.0521 to 13.9 µM)
MIC [8]: 0.06 to 32 µg/mL (≈ 0.0521 to 27.8 µM)
MIC [9]: 0.125 to 8 µg/mL (≈ 0.108 to 6.94 µM)
MIC [10]: 0.125 to 2 µg/mL (≈ 0.108 to 1.74 µM)
MIC [11]: 0.004 to 0.5 µg/mL (≈ 0.00347 to 0.434 µM)

CO[C@H]1/C=C/O[C@@]2(C)Oc3c(C)c(O)c4c(c3C2=O)C(=O)C(N2CCC(NCC3CCN(c5c(F)cc6c(=O)c(C(=O)O)cn(C7CC7)c6c5Cl)C3)CC2)=C(NC(=O)/C(C)=C\C=C\[C@H](C)[C@H](O)[C@@H](C)[C@@H](O)[C@@H](C)[C@H](OC(C)=O)[C@@H]1C)C4=O (mixture of isomers) [Example 36, (R/S)-3-{4-[1-(3-Carboxy-8-chloro-1-cyclopropyl-6-fluoro-4-oxo-1,4-dihydroquinolin-7-yl)-(pyrrolidin-3-ylmethyl)-amino]-piperidin-1-yl}rifamycin S]
MIC [1]: 0.008 to 0.063 µg/mL (≈ 0.00692 to 0.0545 µM)
MIC [2]: 0.008 to 0.063 µg/mL (≈ 0.00692 to 0.0545 µM)
MIC [3]: 0.008 to 0.125 µg/mL (≈ 0.00692 to 0.108 µM)
MIC [4]: 2 to 32 µg/mL (≈ 1.73 to 27.7 µM)
MIC [5]: 0.5 to 64 µg/mL
MIC [6]: 0.004 to 0.5 µg/mL (≈ 0.00346 to 0.432 µM)
MIC [7]: 0.06 to 16 µg/mL (≈ 0.0519 to 13.8 µM)
MIC [8]: 0.06 to 32 µg/mL (≈ 0.0519 to 27.7 µM)
MIC [9]: 0.125 to 8 µg/mL (≈ 0.108 to 6.92 µM)
MIC [10]: 0.125 to 2 µg/mL (≈ 0.108 to 1.73 µM)
MIC [11]: 0.004 to 0.5 µg/mL (≈ 0.00346 to 0.432 µM)

CO[C@H]1/C=C/O[C@@]2(C)Oc3c(C)c(O)c4c(c3C2=O)C(=O)C(N2CCC(NCC3CCN(c5nc6c(cc5F)c(=O)c(C(=O)O)cn6-c5ccc(F)cc5F)C3)CC2)=C(NC(=O)/C(C)=C\C=C\[C@H](C)[C@H](O)[C@@H](C)[C@@H](O)[C@@H](C)[C@H](OC(C)=O)[C@@H]1C)C4=O (mixture of isomers) [Example 37]
MIC [1]: 0.008 to 0.063 µg/mL (≈ 0.00669 to 0.0527 µM)
MIC [2]: 0.008 to 0.063 µg/mL (≈ 0.00669 to 0.0527 µM)
MIC [3]: 0.008 to 0.125 µg/mL (≈ 0.00669 to 0.105 µM)
MIC [4]: 2 to 32 µg/mL (≈ 1.67 to 26.8 µM)
MIC [5]: 0.5 to 64 µg/mL
MIC [6]: 0.004 to 0.5 µg/mL (≈ 0.00335 to 0.418 µM)
MIC [7]: 0.06 to 16 µg/mL (≈ 0.0502 to 13.4 µM)
MIC [8]: 0.06 to 32 µg/mL (≈ 0.0502 to 26.8 µM)
MIC [9]: 0.125 to 8 µg/mL (≈ 0.105 to 6.69 µM)
MIC [10]: 0.125 to 2 µg/mL (≈ 0.105 to 1.67 µM)
MIC [11]: 0.004 to 0.5 µg/mL (≈ 0.00335 to 0.418 µM)
